Measurements: ChEMBL document CHEMBL5338786, “In Silico-Guided Rational Drug Design and Synthesis of Novel 4-(Thiophen-2-yl)butanamides as Potent and Selective TRPV1 Agonists” (J Med Chem, 2023)
One block for each molecule: values may come before it. The source made the active and inactive calls.

Columns and labels:
[1] = biological target: T1, Transient receptor potential cation channel subfamily A member 1 (Rattus norvegicus, UniProt Q6RI86); assay: Antagonist activity at rat recombinant TRPA1 expressed in HEK293 cells assessed as desensitization by measuring inhibition of allyl isothiocyanate induced intracellular calcium accumulation preincubated for 5 mins followed by allyl isothiocyanate stimulation by Fluo4-AM based assay; type: cell-based
T1 sequence (Q6RI86 whole entry): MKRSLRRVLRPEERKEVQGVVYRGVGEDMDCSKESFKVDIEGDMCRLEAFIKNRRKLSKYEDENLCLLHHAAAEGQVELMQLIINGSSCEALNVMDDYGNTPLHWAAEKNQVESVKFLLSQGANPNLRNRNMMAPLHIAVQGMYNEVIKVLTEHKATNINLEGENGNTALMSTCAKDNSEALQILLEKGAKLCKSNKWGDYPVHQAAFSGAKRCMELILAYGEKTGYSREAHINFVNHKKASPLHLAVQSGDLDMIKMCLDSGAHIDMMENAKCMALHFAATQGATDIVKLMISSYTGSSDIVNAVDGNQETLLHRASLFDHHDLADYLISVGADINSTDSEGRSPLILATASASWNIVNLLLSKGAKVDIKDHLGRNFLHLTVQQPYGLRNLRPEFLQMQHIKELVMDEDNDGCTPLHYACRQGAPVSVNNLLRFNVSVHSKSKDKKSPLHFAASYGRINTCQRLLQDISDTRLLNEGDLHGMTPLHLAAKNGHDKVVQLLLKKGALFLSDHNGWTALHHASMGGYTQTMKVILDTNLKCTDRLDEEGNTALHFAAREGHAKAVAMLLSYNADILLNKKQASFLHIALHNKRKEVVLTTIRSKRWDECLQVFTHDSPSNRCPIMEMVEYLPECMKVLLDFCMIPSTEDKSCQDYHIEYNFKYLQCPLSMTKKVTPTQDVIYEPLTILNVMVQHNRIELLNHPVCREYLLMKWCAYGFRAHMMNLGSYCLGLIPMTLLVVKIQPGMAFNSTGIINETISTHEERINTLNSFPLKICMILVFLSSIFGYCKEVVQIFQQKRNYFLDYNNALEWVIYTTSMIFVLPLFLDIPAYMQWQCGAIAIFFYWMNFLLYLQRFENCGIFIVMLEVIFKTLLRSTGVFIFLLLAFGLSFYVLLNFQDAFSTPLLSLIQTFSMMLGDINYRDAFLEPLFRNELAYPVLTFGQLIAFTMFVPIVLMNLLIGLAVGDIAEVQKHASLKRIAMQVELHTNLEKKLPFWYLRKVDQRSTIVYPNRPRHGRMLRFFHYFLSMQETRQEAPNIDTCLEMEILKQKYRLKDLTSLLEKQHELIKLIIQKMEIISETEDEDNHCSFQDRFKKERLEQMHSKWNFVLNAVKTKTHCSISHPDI

[2] = biological target: T1, Transient receptor potential cation channel subfamily A member 1; assay: (§1) Agonist activity at rat recombinant TRPA1 expressed in HEK293 cells assessed as increase in intracellular calcium accumulation by Fluo4-AM based assay; type: cell-based
[3] = biological target: T2, Transient receptor potential cation channel subfamily V member 1 (Homo sapiens, UniProt Q8NER1); assay: Agonist activity at human recombinant TRPV1 expressed in HEK293 cells assessed as increase in intracellular calcium level by Fluo4-AM based assay; type: cell-based
T2 sequence (Q8NER1 whole entry): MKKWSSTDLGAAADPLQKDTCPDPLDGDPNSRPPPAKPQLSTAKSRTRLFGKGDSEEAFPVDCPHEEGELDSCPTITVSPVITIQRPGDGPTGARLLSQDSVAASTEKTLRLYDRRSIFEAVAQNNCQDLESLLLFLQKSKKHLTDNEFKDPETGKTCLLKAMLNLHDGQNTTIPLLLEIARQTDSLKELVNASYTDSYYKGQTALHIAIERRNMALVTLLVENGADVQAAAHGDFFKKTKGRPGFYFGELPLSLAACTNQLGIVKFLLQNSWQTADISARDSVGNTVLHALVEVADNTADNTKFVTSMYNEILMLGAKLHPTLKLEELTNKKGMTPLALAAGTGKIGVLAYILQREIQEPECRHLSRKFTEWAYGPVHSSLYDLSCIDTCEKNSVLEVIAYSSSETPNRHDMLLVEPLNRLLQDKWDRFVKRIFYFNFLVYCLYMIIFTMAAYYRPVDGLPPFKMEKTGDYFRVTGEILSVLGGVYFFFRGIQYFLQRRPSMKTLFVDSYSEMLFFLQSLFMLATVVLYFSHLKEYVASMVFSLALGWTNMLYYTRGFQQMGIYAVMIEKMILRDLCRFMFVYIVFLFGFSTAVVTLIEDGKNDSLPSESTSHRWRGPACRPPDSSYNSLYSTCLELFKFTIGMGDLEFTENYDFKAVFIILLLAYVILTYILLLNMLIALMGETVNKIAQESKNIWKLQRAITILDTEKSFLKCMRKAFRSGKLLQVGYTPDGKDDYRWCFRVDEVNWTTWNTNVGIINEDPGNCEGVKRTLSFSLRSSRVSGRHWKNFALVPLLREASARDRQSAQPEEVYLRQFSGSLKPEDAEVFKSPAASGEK

[4] = biological target: T2, Transient receptor potential cation channel subfamily V member 1; assay: Antagonist activity at human recombinant TRPV1 expressed in HEK293 cells assessed as desensitization by measuring inhibition of capsaicin-induced intracellular calcium accumulation preincubated for 5 mins followed by capsaicin stimulation by Fluo4-AM based assay; type: cell-based
[5] = biological target: Transient receptor potential cation channel subfamily A member 1 (Rattus norvegicus) (UniProt Q6RI86); assay: as §1; type: cell-based
Chain of Transient receptor potential cation channel subfamily A member 1 (Rattus norvegicus) (Q6RI86 whole entry): as the sequence (Q6RI86 whole entry) above

[6] = biological target: Transient receptor potential cation channel subfamily A member 1 (Rattus norvegicus) (UniProt Q6RI86); assay: Agonist activity at rat recombinant TRPA1 expressed in HEK293 cells assessed as increase in intracellular calcium accumulation by measuring efficacy by Fluo4-AM based assay relative to allyl isothiocyanate; type: cell-based
[7] = biological target: Transient receptor potential cation channel subfamily V member 4 (Rattus norvegicus, UniProt Q9ERZ8); assay: Antagonist activity at rat recombinant TRPV4 expressed in HEK293 cells assessed as desensitization by measuring inhibition of GSK1016790A induced intracellular calcium accumulation preincubated for 5 mins by Fluo4-AM based assay; type: cell-based
Chain of Transient receptor potential cation channel subfamily V member 4 (Q9ERZ8 whole entry): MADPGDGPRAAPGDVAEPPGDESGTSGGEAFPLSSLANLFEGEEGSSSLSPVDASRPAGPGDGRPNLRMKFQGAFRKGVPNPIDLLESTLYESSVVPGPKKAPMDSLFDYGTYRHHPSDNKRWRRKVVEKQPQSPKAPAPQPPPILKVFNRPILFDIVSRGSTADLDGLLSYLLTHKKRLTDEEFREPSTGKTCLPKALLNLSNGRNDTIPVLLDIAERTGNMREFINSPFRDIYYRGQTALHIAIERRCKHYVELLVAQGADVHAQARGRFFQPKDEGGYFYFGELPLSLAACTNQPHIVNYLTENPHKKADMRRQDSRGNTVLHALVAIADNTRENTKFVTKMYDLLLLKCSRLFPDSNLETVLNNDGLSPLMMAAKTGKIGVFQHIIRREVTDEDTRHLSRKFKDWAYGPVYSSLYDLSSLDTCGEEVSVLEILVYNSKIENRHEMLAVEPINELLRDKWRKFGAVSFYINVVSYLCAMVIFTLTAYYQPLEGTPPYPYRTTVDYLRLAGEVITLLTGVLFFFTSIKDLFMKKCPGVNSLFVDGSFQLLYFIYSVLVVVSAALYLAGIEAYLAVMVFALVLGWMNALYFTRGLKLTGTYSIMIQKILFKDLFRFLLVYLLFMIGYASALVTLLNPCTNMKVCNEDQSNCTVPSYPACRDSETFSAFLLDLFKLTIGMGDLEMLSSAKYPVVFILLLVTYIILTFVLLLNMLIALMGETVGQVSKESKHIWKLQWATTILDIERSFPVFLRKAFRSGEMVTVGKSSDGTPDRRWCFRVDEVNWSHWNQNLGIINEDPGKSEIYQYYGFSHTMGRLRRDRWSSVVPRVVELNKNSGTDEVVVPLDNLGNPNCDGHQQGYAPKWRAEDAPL

[8] = biological target: Transient receptor potential cation channel subfamily M member 8 (Rattus norvegicus, UniProt Q8R455); assay: Antagonist activity at rat recombinant TRPM8 expressed in HEK293 cells assessed as desensitization by measuring inhibition of icilin induced intracellular calcium accumulation preincubated for 5 mins by Fluo4-AM based assay; type: cell-based
Chain of Transient receptor potential cation channel subfamily M member 8 (Q8R455 whole entry): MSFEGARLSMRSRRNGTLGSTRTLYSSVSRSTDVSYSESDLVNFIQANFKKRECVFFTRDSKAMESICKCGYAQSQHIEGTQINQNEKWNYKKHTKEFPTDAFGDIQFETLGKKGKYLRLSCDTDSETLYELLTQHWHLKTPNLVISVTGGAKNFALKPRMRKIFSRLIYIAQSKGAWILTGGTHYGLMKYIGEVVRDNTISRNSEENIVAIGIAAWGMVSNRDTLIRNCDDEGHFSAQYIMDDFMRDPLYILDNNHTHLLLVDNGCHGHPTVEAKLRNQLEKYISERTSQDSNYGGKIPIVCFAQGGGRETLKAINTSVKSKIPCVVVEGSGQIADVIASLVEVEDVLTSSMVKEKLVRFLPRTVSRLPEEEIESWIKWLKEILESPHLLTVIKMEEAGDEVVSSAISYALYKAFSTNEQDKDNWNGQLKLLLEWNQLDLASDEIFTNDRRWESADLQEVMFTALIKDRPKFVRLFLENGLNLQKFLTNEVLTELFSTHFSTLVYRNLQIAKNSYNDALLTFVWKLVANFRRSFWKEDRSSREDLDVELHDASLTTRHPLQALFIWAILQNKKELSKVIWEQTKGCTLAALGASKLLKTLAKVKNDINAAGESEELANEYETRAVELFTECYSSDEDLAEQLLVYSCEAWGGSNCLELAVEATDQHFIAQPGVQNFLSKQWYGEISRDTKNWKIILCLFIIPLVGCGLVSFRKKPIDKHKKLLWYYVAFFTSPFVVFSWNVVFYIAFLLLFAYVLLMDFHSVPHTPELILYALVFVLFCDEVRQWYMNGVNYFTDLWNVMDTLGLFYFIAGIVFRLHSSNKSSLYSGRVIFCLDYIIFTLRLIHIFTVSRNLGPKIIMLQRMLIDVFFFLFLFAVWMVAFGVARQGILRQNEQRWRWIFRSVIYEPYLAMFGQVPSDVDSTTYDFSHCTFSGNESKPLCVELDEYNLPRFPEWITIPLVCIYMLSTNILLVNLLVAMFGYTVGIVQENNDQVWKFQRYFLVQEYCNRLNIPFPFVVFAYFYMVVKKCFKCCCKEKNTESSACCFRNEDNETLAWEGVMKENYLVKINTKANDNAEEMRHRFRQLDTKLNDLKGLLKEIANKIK

[9] = Toxicity in C57BL/6J mouse assessed as alteration in nociceptive threshold at 0.0075 to 0.15 ug per paw, sc measured after 10 mins; type: organism-based; conditions: in vivo, dose 0.0075-0.15 µg
HUVEC = assay: Cytotoxicity against HUVEC cells expressing TRPV1 receptors assessed as reduction in cell viability at 0.1 to 10 uM measured after 48 hrs by Alamar Blue assay; type: toxicity, cell-based; conditions: human, dose 0.1-10 µM
Mus musculus [10] = assay: Antinociceptive activity against formalin-induced nociception in C57BL/6J mouse assessed as total time of nociceptive response at 0.0015 ug per paw, sc pretreated for 10 min followed by formalin challenge and measured after 20 to 60 mins (reference value: 2.18 +/- 0.183 min); type: functional; conditions: dose 0.0015 µg, time 30-70 min
Mus musculus [11] = assay: Antinociceptive activity against formalin-induced nociception in C57BL/6J mouse assessed as total time of nociceptive response at 0.15 ug per paw, sc pretreated for 10 min followed by formalin challenge and measured after 20 to 60 mins (reference value: 2.18 +/- 0.183 min); type: functional; conditions: dose 0.15 µg, time 30-70 min
HaCaT = assay: Cytotoxicity against human HaCaT cells expressing TRPV1 receptors assessed as reduction in cell viability at 0.1 to 10 uM measured after 48 hrs by Alamar Blue assay; type: toxicity, cell-based; conditions: dose 0.1-10 µM
Mus musculus [12] = assay: Antinociceptive activity against formalin-induced nociception in C57BL/6J mouse assessed as total time of nociceptive response at 0.0075 ug per paw, sc pretreated for 10 min followed by formalin challenge and measured after 20 to 60 mins (reference value: 2.18 +/- 0.183 min); type: functional; conditions: dose 0.0075 µg, time 30-70 min
[13] = biological target: Transient receptor potential cation channel subfamily V member 4 (Rattus norvegicus) (UniProt Q9ERZ8); assay: Agonist activity at rat recombinant TRPV4 expressed in HEK293 cells assessed as increase in intracellular calcium accumulation by measuring efficacy by Fluo4-AM based assay relative to ionomycin; type: cell-based; conditions: filed as agonist
Chain of Transient receptor potential cation channel subfamily V member 4 (Rattus norvegicus) (Q9ERZ8 whole entry): as the sequence (Q9ERZ8 whole entry) above

Structure (SMILES): O=C(CCCc1ccc(-c2ccccc2)s1)NCc1ccccc1
IC50 [1]: > 100 µM

Structure (SMILES): O=C(CCCc1ccc(I)s1)NCc1ccccc1
IC50 [1]: > 100 µM

Structure (SMILES): O=C(CCCc1ccccc1)Nc1ccc(O)cc1
IC50 [1]: > 10 µM

EC50 [2]: 10.4 µM
Structure (SMILES): O=C(CCCc1ccc(-c2cccnc2)s1)NCc1ccc(Cl)c(Cl)c1
IC50 [1]: > 50 µM

EC50 [3]: > 10 µM | Activity [5]: inactive | Efficacy [6]: < 10%
Structure (SMILES): O=C(CCCc1ccc(-c2cccnc2)s1)NCc1ccccc1
IC50 [4]: > 100 µM | IC50 [1]: > 100 µM

Structure (SMILES): COc1ccc(CNC(=O)CCCc2ccccc2)cc1
IC50 [1]: > 100 µM

Structure (SMILES): O=C(CCCc1ccc(I)s1)NCc1ccc(O)cc1
IC50 [1]: > 100 µM

EC50 [2]: 27.2 µM
Structure (SMILES): COc1cc(CNC(=O)CCCc2ccccc2)ccc1O
IC50 [1]: 44.5 µM

Structure (SMILES): O=C(CCCc1cccs1)NCc1ccccc1
IC50 [1]: > 100 µM

EC50 [3]: 2.63 µM | Activity [5]: inactive | Efficacy [6]: < 10%
Structure (SMILES): O=C(CCCc1ccccc1)NCCc1ccc(O)c(O)c1
IC50 [4]: 5.84 µM | IC50 [1]: > 10 µM

Structure (SMILES): O=C(CCCc1ccc(-c2ccccc2)s1)Nc1ccc(O)cc1
IC50 [1]: > 50 µM

Structure (SMILES): O=C(CCCc1ccc(-c2ccccc2)s1)NCc1ccc(O)cc1
IC50 [1]: > 50 µM

EC50 [2]: 27.1 µM
Structure (SMILES): O=C(CCCc1ccc(-c2cccnc2)s1)NCc1ccc(O)cc1
IC50 [1]: > 50 µM

EC50 [2]: 18.7 µM
Structure (SMILES): COc1cc(CNC(=O)CCCc2ccc(-c3ccccc3)s2)ccc1O
IC50 [7]: 27.6 µM | IC50 [8]: 13.8 µM | IC50 [1]: 33.7 µM

EC50 [3]: > 50 µM | EC50 [2]: > 50 µM | Efficacy [6]: 21%
Structure (SMILES): COc1ccc(CNC(=O)CCCc2ccc(-c3cccnc3)s2)cc1
IC50 [4]: > 50 µM | IC50 [1]: > 50 µM

EC50 [3]: 1.15 µM | Activity [5]: inactive | Efficacy [6]: < 10%
Structure (SMILES): O=C(CCCc1ccc(I)s1)NCCc1ccc(O)c(O)c1
IC50 [4]: 0.46 µM | IC50 [1]: > 100 µM

Structure (SMILES): COc1cc(CNC(=O)CCCc2ccc(-c3cccnc3)s2)ccc1O
IC50 [7]: > 100 µM | IC50 [8]: > 100 µM | Activity [9]: Non-Toxic | Activity (HUVEC): Non-Toxic | Time (Mus musculus [10]): 0.758 min | Time (Mus musculus [11]): 0.618 min | Activity (HaCaT): Non-Toxic | Time (Mus musculus [12]): 1.95 min | IC50 [1]: > 100 µM

EC50 [3]: > 10 µM | Activity [5]: inactive | Efficacy [6]: < 10%
Structure (SMILES): O=C(CCCc1ccc(-c2cccnc2)s1)NCCc1ccc(O)c(O)c1
IC50 [4]: > 10 µM | IC50 [1]: > 100 µM

Efficacy [13]: 88.5%
Structure (SMILES): CC(C)C[C@H](NC(=O)c1cc2ccccc2s1)C(=O)N1CCN(C(=O)[C@H](CO)NS(=O)(=O)c2ccc(Cl)cc2Cl)CC1

Structure (SMILES): COc1cc(CNC(=O)CCCc2ccc(I)s2)ccc1O
IC50 [7]: > 50 µM | IC50 [8]: 16.8 µM | Activity [9]: Non-Toxic | Activity (HUVEC): Non-Toxic | Activity (HaCaT): Non-Toxic | IC50 [1]: > 50 µM

EC50 [2]: 30.3 µM
Structure (SMILES): O=C(CCCc1ccc(I)s1)Nc1ccc(O)cc1
IC50 [1]: 44.1 µM

Structure (SMILES): O=C(CCCc1ccc(-c2cccnc2)s1)Nc1ccc(O)cc1
IC50 [1]: > 100 µM

EC50 [3]: > 50 µM | Activity [5]: inactive | Efficacy [6]: < 10%
Structure (SMILES): O=C(CCCc1ccccc1)NCc1ccccc1
IC50 [4]: > 100 µM | IC50 [1]: > 100 µM

EC50 [2]: 10.7 µM
Structure (SMILES): O=C(CCCc1ccccc1)NCc1ccc(Cl)c(Cl)c1
IC50 [1]: 11.9 µM

Structure (SMILES): COc1ccc(CNC(=O)CCCc2ccc(I)s2)cc1
IC50 [1]: > 100 µM

EC50 [2]: 12 µM
Structure (SMILES): O=C(CCCc1ccc(-c2ccccc2)s1)NCc1ccc(Cl)c(Cl)c1
IC50 [1]: > 50 µM

EC50 [2]: > 50 µM
Structure (SMILES): O=C(CCCc1ccc(I)s1)NCc1ccc(Cl)c(Cl)c1
IC50 [1]: 19.2 µM

Structure (SMILES): O=C(CCCc1ccccc1)NCc1ccc(O)cc1
IC50 [1]: > 100 µM
